# Columns and labels:
# [1] = Inhibition of HCV genotype 1a NS5A polymerase L31V/Y93H double mutant infected in human HuH7 replicon cells by luciferase reporter gene assay
# [2] = Inhibition of HCV genotype 1a NS5A polymerase infected in human HuH7 replicon cells by luciferase reporter gene assay
# [3] = Inhibition of HCV genotype 1b NS5B polymerase infected in human HuH7 replicon cells by luciferase reporter gene assay
# [4] = Inhibition of HCV genotype 4a NS5B polymerase infected in human HuH7 replicon cells by luciferase reporter gene assay
# [5] = Inhibition of HCV genotype 2a NS5B polymerase infected in human HuH7 replicon cells by luciferase reporter gene assay
# [6] = Inhibition of HCV genotype 3a NS5B polymerase infected in human HuH7 replicon cells by luciferase reporter gene assay
Structure (SMILES),EC50 [1],EC50 [2],EC50 [3],other results
CNC(=O)c1c(-c2ccc(F)cc2)oc2cc3c(cc12)C(C)OCCN3S(C)(=O)=O (centres undefined),0.021 µM,0.028 µM,0.011 µM,
CNC(=O)c1c(-c2ccc(F)cc2)oc2cc3c(cc12)[C@@H](C)OC1(CC1)CN3S(C)(=O)=O,,> 2 µM,0.666 µM,
CNC(=O)c1c(-c2ccc(F)cc2)oc2cc3c(cc12)CCCCN3C(C)=O,> 2 µM,> 2 µM,,
CNC(=O)c1c(-c2ccc(F)cc2)oc2cc3c(cc12)[C@H](C)N(C)C(=O)CN3S(C)(=O)=O,,0.102 µM,0.013 µM,
CNC(=O)c1c(-c2ccc(F)cc2)oc2cc3c(cc12)C(O)CCCN3S(C)(=O)=O (centres undefined),0.73 µM,,0.107 µM,
CNC(=O)c1c(-c2ccc(F)cc2)oc2cc3c(cc12)[C@H](C)O[C@H](CO)CN3S(C)(=O)=O,,0.009 µM,0.003 µM,EC50 [4]: 0.009 µM; EC50 [5]: 0.012 µM; EC50 [6]: 0.006 µM
CNC(=O)c1c(-c2ccc(F)cc2)oc2cc3c(cc12)[C@H](C)O[C@@H](CO)CN3S(C)(=O)=O,,0.064 µM,0.013 µM,
CNC(=O)c1c2cc3c(cc2nn1-c1ccc(F)cc1)N(S(C)(=O)=O)CCCC3C (centres undefined),,> 2 µM,,
CNC(=O)c1c(-c2ccc(F)cc2)oc2cc3c(cc12)[C@@H](C)OCCN3S(C)(=O)=O,0.624 µM,,0.686 µM,
CNC(=O)c1c(-c2ccc(F)cc2)oc2cc3c(cc12)C(=O)CCCN3S(C)(=O)=O,0.318 µM,,0.078 µM,
CNC(=O)c1c(-c2ccc(F)cc2)oc2cc3c(cc12)CCCCN3S(=O)(=O)C1CC1,0.423 µM,0.335 µM,0.073 µM,
CNC(=O)c1c(-c2ccc(F)cc2)oc2cc3c(cc12)C(C)OCC(CS(C)(=O)=O)N3S(C)(=O)=O (centres undefined),,0.016 µM,0.019 µM,EC50 [4]: 0.051 µM; EC50 [5]: 0.134 µM; EC50 [6]: 0.07 µM
CNC(=O)c1c(-c2ccc(F)cc2)oc2cc3c(cc12)[C@@H](C)O[C@H](CO)CN3S(C)(=O)=O,,0.554 µM,0.069 µM,
CNC(=O)c1c(-c2ccc(F)cc2)oc2cc3c(cc12)C(C)n1nnnc1CN3S(C)(=O)=O (centres undefined),,0.033 µM,0.008 µM,
CNC(=O)c1c(-c2ccc(F)cc2)oc2cc3c(cc12)[C@H](C)CCCN3S(C)(=O)=O,0.009 µM,0.01 µM,0.004 µM,
CS(=O)(=O)NC(=O)c1c(-c2ccc(F)cc2)oc2cc3c(cc12)CCCCN3S(C)(=O)=O,> 2 µM,,,
CS(=O)(=O)N1CCCCc2cc3c(C(=O)NC4CC4)c(-c4ccc(F)cc4)oc3cc21,> 2 µM,,,
CN(C)C(=O)c1c(-c2ccc(F)cc2)oc2cc3c(cc12)CCCCN3S(C)(=O)=O,> 2 µM,,,
CS(=O)(=O)N1CCCCc2cc3c(C(N)=O)c(-c4ccc(F)cc4)oc3cc21,> 2 µM,,,
CNC(=O)c1c(-c2ccc(F)cc2)nc2cc3c(cn12)C(C)CCCN3S(C)(=O)=O (centres undefined),0.801 µM,,0.182 µM,
CNC(=O)c1c(-c2ccc(Oc3ccc(F)cc3)cc2)oc2cc3c(cc12)C(C)CCCN3S(C)(=O)=O (centres undefined),0.071 µM,,0.014 µM,
CNC(=O)c1c(-c2ccc(F)cc2F)oc2cc3c(cc12)C(C)CCCN3S(C)(=O)=O (centres undefined),0.015 µM,,0.008 µM,
CNC(=O)c1c(-c2ccccc2F)oc2cc3c(cc12)C(C)CCCN3S(C)(=O)=O (centres undefined),0.011 µM,,0.007 µM,

Structure (SMILES),EC50 [1],EC50 [2],EC50 [3],other results
CNC(=O)c1c(-c2ccc(F)cc2)oc2cc3c(cc12)C(C)OCC(CO)N3S(C)(=O)=O (centres undefined),,0.04 µM,0.033 µM,EC50 [4]: 0.117 µM; EC50 [5]: 0.141 µM; EC50 [6]: 0.053 µM
CNC(=O)c1c(-c2ccc(F)cc2)oc2cc3c(cc12)[C@@H](C)O[C@H](CS(C)(=O)=O)CN3S(C)(=O)=O,,0.1 µM,0.024 µM,
CNC(=O)c1c(-c2ccc(F)cc2)oc2cc3c(cc12)[C@H](C)O[C@H](CS(C)(=O)=O)CN3S(C)(=O)=O,,0.004 µM,0.003 µM,EC50 [4]: 0.007 µM; EC50 [5]: 0.018 µM; EC50 [6]: 0.01 µM
CNC(=O)c1c(-c2ccc(F)cc2)oc2cc3c(cc12)C(C)OC(CO)CN3S(C)(=O)=O (centres undefined),,0.052 µM,0.012 µM,EC50 [4]: 0.032 µM; EC50 [5]: 0.062 µM; EC50 [6]: 0.02 µM
CNC(=O)c1c(-c2ccc(F)cc2)oc2cc3c(cc12)[C@H](C)OC1(CC1)CN3S(C)(=O)=O,,0.093 µM,0.013 µM,
CNC(=O)c1c(-c2ccc(F)cc2)oc2cc3c(cc12)C(C)OC1(CC1)CN3S(C)(=O)=O (centres undefined),,0.13 µM,0.019 µM,
CNC(=O)c1c(-c2ccc(F)cc2)oc2cc3c(cc12)[C@@H](C)n1nncc1CN3S(C)(=O)=O,,,0.038 µM,
CNC(=O)c1c(-c2ccc(F)cc2)oc2cc3c(cc12)C(C)n1ccnc1CN3S(C)(=O)=O (centres undefined),,0.026 µM,0.074 µM,
CNC(=O)c1c(-c2ccc(F)cc2)oc2cc3c(cc12)[C@@H](C)N(C)C(=O)CN3S(C)(=O)=O,,0.688 µM,0.059 µM,
CNC(=O)c1c(-c2ccc(F)cc2)oc2cc3c(cc12)[C@@H](C)NC(=O)CN3S(C)(=O)=O,,1.79 µM,0.586 µM,
CNC(=O)c1c(-c2ccc(F)cc2)oc2cc3c(cc12)C(C)NC(=O)CN3S(C)(=O)=O (centres undefined),0.014 µM,0.019 µM,0.015 µM,
CNC(=O)c1c(-c2ccc(F)cc2)oc2cc3c(cc12)C(C)NCCN3S(C)(=O)=O (centres undefined),0.265 µM,,0.043 µM,
CNC(=O)c1c(-c2ccc(F)cc2)oc2cc3c(cc12)[C@H](C)OCCN3S(C)(=O)=O,0.009 µM,,0.003 µM,
CNC(=O)c1c(-c2ccc(F)cc2)oc2cc3c(cc12)[C@H]1C[C@H]1CCN3S(C)(=O)=O,> 2 µM,,> 2 µM,
CNC(=O)c1c(-c2ccc(F)cc2)oc2cc3c(cc12)[C@@H]1C[C@@H]1CCN3S(C)(=O)=O,0.025 µM,,0.007 µM,
CNC(=O)c1c(-c2ccc(F)cc2)oc2cc3c(cc12)C1(CCCN3S(C)(=O)=O)CC1,0.118 µM,,0.02 µM,
CNC(=O)c1c(-c2ccc(F)cc2)oc2cc3c(cc12)[C@@H](C)CCCN3S(C)(=O)=O,0.089 µM,,0.046 µM,
CNC(=O)c1c(-c2ccc(F)cc2)oc2cc3c(cc12)C(C)CCCN3S(C)(=O)=O (centres undefined),0.01 µM,,0.003 µM,
C=C1CCCN(S(C)(=O)=O)c2cc3oc(-c4ccc(F)cc4)c(C(=O)NC)c3cc21,0.106 µM,,0.026 µM,
CNC(=O)c1c(-c2ccc(F)cc2)oc2cc3c(cc12)CCCCN3C(=O)OC,0.722 µM,,0.164 µM,
CS(=O)(=O)N1CCCCc2cc3c(-c4ncn[nH]4)c(-c4ccc(F)cc4)oc3cc21,,,0.85 µM,
CN(O)C(=O)c1c(-c2ccc(F)cc2)oc2cc3c(cc12)CCCCN3S(C)(=O)=O,> 2 µM,,0.298 µM,
CONC(=O)c1c(-c2ccc(F)cc2)oc2cc3c(cc12)CCCCN3S(C)(=O)=O,0.09 µM,,0.031 µM,

Structure (SMILES),EC50 [1],EC50 [2],EC50 [3],other results
CNC(=O)c1c(-c2ccc(F)cc2)oc2cc3c(cc12)CCCCCCN3S(C)(=O)=O,,,0.026 µM,
CNC(=O)c1c(-c2ccc(F)cc2)oc2cc3c(cc12)CCCCCN3S(C)(=O)=O,,,0.005 µM,
CNC(=O)c1c(-c2ccc(F)cc2)oc2cc3c(cc12)CCCN3S(C)(=O)=O,,,0.451 µM,
CNC(=O)c1c(-c2ccc(F)cc2)oc2cc3c(cc12)CCN3S(C)(=O)=O,,,0.304 µM,
CNC(=O)c1c(-c2ccc(F)cc2)oc2cc3c(cc12)C(C)n1nncc1CN3S(C)(=O)=O (centres undefined),,,0.006 µM,
CNC(=O)c1c(-c2ccc(F)cc2OC)oc2cc3c(cc12)C(C)CCCN3S(C)(=O)=O (centres undefined),> 2 µM,,0.056 µM,
CCNC(=O)c1c(-c2ccc(F)cc2)oc2cc3c(cc12)CCCCN3S(C)(=O)=O,,> 2 µM,,
CNC(=O)c1c(-c2ccc(F)cc2)oc2cc3c(cc12)[C@H](C)NC(=O)CN3S(C)(=O)=O,,,0.005 µM,
CNC(=O)c1c(-c2ccc(F)cc2)oc2cc3c(cc12)C(C)N(C)C(=O)CN3S(C)(=O)=O (centres undefined),,0.18 µM,0.017 µM,
CNC(=O)c1c(-c2ccc(F)cc2)oc2cc3c(cc12)[C@@H](C)O[C@@H](CO)CN3S(C)(=O)=O,,,1.47 µM,
CNC(=O)c1c(-c2ccc(F)cc2)oc2cc3c(cc12)[C@@H](C)O[C@@H](CS(C)(=O)=O)CN3S(C)(=O)=O,,> 2 µM,1.21 µM,
CNC(=O)c1c(-c2ccc(F)cc2)oc2cc3c(cc12)[C@H](C)O[C@@H](CS(C)(=O)=O)CN3S(C)(=O)=O,,0.057 µM,0.013 µM,
CNC(=O)c1c(-c2ccc(F)cc2)oc2cc3c(cc12)C(C)N(C)CCN3S(C)(=O)=O (centres undefined),0.05 µM,,0.014 µM,
CNC(=O)c1c(-c2ccc(F)cc2)oc2cc3c(cc12)C1CC1CCN3S(C)(=O)=O (centres undefined),0.044 µM,0.035 µM,0.009 µM,
CNC(=O)c1c(-c2ccc(F)cc2)oc2cc3c(cc12)C(C)=CCCN3S(C)(=O)=O,0.07 µM,,0.016 µM,
CS(=O)(=O)N1CCCCc2cc3c(-c4ncc[nH]4)c(-c4ccc(F)cc4)oc3cc21,0.059 µM,0.033 µM,0.005 µM,
CS(=O)(=O)N1CCCCc2cc3c(C4=NCCN4)c(-c4ccc(F)cc4)oc3cc21,> 2 µM,,,
CNC(=O)c1c(-c2ccc(F)cc2)nn2cc3c(cc12)C(C)CCCN3S(C)(=O)=O (centres undefined),0.523 µM,,0.109 µM,
CNC(=O)c1c(-c2ccc(F)cc2)oc2cc3c(cc12)CCCCN3S(C)(=O)=O,0.083 µM,,0.017 µM,
CNC(=O)c1c(-c2ccc(F)cc2)oc2cc3c(cc12)C(C)OC(C)CN3S(C)(=O)=O (centres undefined),,0.033 µM,0.008 µM,
CS(=O)(=O)N1CCCCc2cc3c(C(=O)NC#N)c(-c4ccc(F)cc4)oc3cc21,> 2 µM,,,
CNC(=O)c1c(-c2ccc(F)cc2)oc2cc3c(cc12)[C@H](C)n1nncc1CN3S(C)(=O)=O,,,0.003 µM,
